The target in assay [1] is T1, Endothelin receptor type B (Homo sapiens) (UniProt P24530).
T1 sequence (whole entry): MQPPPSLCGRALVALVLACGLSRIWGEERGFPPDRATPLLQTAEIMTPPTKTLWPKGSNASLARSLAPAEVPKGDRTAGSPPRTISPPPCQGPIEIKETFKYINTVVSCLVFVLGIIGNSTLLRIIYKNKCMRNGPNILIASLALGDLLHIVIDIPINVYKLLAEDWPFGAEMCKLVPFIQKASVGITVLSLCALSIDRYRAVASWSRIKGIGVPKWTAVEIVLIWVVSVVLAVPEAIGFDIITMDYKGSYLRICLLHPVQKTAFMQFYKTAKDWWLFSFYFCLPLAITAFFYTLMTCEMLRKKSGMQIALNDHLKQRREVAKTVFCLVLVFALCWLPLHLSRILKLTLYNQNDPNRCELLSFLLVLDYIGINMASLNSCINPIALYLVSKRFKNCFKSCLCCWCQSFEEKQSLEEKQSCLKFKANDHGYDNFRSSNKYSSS
Description: Inhibition of [125I]ET1 binding to CHO cells expressing human Endothelin B receptor at a concentration of 1 uM. Format: cell-based.

In assay [2] the target is T2, Endothelin-1 receptor (Homo sapiens, UniProt P25101).
T2 sequence (P25101 whole entry): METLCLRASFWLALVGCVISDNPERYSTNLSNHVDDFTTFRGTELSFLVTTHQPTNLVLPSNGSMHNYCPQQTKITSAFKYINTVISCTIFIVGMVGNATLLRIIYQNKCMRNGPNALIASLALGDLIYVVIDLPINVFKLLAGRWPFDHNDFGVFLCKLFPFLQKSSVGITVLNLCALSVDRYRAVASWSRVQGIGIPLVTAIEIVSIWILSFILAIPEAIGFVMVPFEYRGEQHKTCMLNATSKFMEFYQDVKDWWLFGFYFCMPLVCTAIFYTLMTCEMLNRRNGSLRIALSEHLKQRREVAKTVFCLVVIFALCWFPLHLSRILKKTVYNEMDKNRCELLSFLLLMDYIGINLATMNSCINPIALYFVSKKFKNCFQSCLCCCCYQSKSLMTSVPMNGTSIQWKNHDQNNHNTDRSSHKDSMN
Description: In vitro inhibition of [125I]ET1 binding to CHO cells expressing recombinant human Endothelin A receptor. Format: cell-based.

Assay [3] addresses T2, Endothelin-1 receptor. Put plainly: Tested for in vitro inhibition of [125I]ET1 binding to CHO cells expressing human Endothelin A receptor. Format: cell-based.
In assay [4] the target is T3, Endothelin receptor type B (Homo sapiens, UniProt P24530).
T3 sequence (P24530 whole entry): T1 sequence (whole entry)
Description: Inhibition of [125I]-ET-1 binding to CHO cells expressing human Endothelin B receptor […]. Format: cell-based.

Assay [5] is filed under the species Rattus norvegicus. Description: Tested for antagonising activity against ET-1 induced contraction of rat aorta. Type of assay: functional.

A value given as a limit tells only on which side of the number the result lay.

A word on the inhibition: it is the share of the control response that was lost under treatment. Read a high inhibition as a strong effect. In general, IC50 refers to the concentration that inhibits the measured activity by half. What is called Ki is a measure of affinity in units of concentration, obtained from inhibition or displacement. A higher Ki goes with lower affinity. The term pKB denotes the KB on a negative log10 scale, so that one unit is a factor of ten. Higher therefore signals a low KB.

Consider `CCOc1ccc2c(c1)[C@@H](c1ccc(OC)cc1OCC(C)(C)C(=O)O)N(CC(=O)O)[C@@H]2c1ccc2c(c1)OCO2`, for which the inhibition in assay [1] was 1%. In addition, in assay [2], the IC50 is 68 nM. The like results for `CCOc1ccc2c(c1)[C@H](c1ccc(OC)cc1OCC(=O)O)N(C(=O)C(=O)O)[C@@H]2c1ccc2c(c1)OCO2` were, in that order, 0% and more than 10000 nM. For `CCOc1ccc2c(c1)[C@@H](c1ccc(OC)cc1OCC(=O)O)N(c1nn[nH]n1)[C@@H]2c1ccc2c(c1)OCO2`, in that order: 17% and 31 nM. In the case of `CCOc1ccc2c(c1)[C@H](c1ccc(OC)cc1)N(CC(=O)O)[C@@H]2c1ccc2c(c1)OCO2`, the inhibition in assay [1] was found to be 23%. In addition, the IC50 in assay [2] is 95 nM. As to `CCOc1ccc2c(c1)[C@@H](c1ccc(OC)cc1OCc1nn[nH]n1)N(CC(=O)O)[C@@H]2c1ccc2c(c1)OCO2`, the inhibition in assay [1] is 0%. Regarding `COc1ccc([C@@H]2c3cc(OC)ccc3[C@@H](c3ccc4c(c3)OCO4)N2CC(=O)O)cc1`, the inhibition in assay [1] amounted to 1%. The IC50 in assay [2] worked out at 3300 nM. In assay [1], `CCCOc1ccc2c(c1)[C@H](c1ccc(OC)cc1)N(CC(=O)O)[C@@H]2c1ccc(OC)cc1OCC(=O)O` showed an inhibition of 0%. Further, the IC50 in assay [2] is more than 10000 nM. `CCOc1ccc2c(c1)[C@H](c1ccc(OC)c(OC)c1OCC(=O)O)N(CC(=O)O)[C@@H]2c1ccc2c(c1)OCO2` gave an inhibition in assay [1] of 27%. In addition, the IC50 in assay [2] is 96 nM. On to `CCOc1ccc2c(c1)[C@@H](c1ccc(OC)cc1OCc1nnn[nH]1)N(CC(=O)O)[C@@H]2c1ccc2c(c1)OCO2`, for which the IC50 in assay [2] amounted to 29 nM. `CCOc1ccc2c(c1)[C@H](c1cc(OC)c(OC)c(OC)c1OCC(=O)O)N(CC(=O)O)[C@@H]2c1ccc2c(c1)OCO2` showed an inhibition in assay [1] of 10%. In assay [2], the IC50 was 330 nM.

As for `CCCOc1ccc2c(c1)[C@@H](c1ccc(OC)cc1)N(CC(=O)O)[C@@H]2c1ccc2c(c1)OCO2`, the half-maximal inhibitory concentration (IC50) in assay [2] is 120 nM. Consider `CCOc1ccc2c(c1)[C@@H](c1ccc(OC)c(OC)c1OCC(=O)O)N(CC(=O)O)[C@@H]2c1ccc2c(c1)OCO2`, for which the inhibition in assay [1] was determined as 2%. The IC50 in assay [2] was determined as 6.1 nM. As to `CCOc1ccc2c(c1)[C@H](c1ccc(OC)cc1OCc1nn[nH]n1)N(CC(=O)O)[C@@H]2c1ccc2c(c1)OCO2`, the inhibition in assay [1] was determined as 37%. Consider `CCOc1ccc2c(c1)[C@@H](c1ccc(OC)cc1OCCO)N(CC(=O)O)[C@@H]2c1ccc2c(c1)OCO2`, for which the inhibition in assay [1] was 6%. For the same compound, the IC50 in assay [2] was more than 10000 nM. Take `CCOc1ccc2c(c1)[C@H](c1ccc(OC)cc1OCC(=O)O)N(CC(=O)O)[C@@H]2c1ccc2c(c1)OCO2`: the inhibition in assay [1] stood at 52%. Further, in assay [2], the IC50 was found to be 4.1 nM. Turning to `CCOc1ccc2c(c1)[C@H](c1ccc(OC)cc1OCc1nnn[nH]1)N(CC(=O)O)[C@@H]2c1ccc2c(c1)OCO2`, in assay [2], the IC50 was more than 1000 nM. For `CCOc1ccc2c(c1)[C@H](c1cc(OC)c(OC)c(OC)c1)N(CC(=O)O)[C@@H]2c1ccc2c(c1)OCO2`, the inhibition in assay [1] came out at 15%.

`CCOc1ccc2c(c1)[C@H](c1cccc(OC)c1OCC(=O)O)N(CC(=O)O)[C@@H]2c1ccc2c(c1)OCO2` registered an inhibition in assay [1] of 31%. In addition, in assay [2], the IC50 worked out at 110 nM. `CCOc1ccc2c(c1)[C@H](c1cc(OC)c(OC)c(OC)c1)N(c1nn[nH]n1)[C@@H]2c1ccc2c(c1)OCO2` showed an inhibition in assay [1] of 0%. In assay [2], the IC50 is more than 10000 nM.

For the compound `CCOc1ccc2c(c1)[C@@H](c1ccc(OC)cc1OCC(=O)O)N(CC(=O)O)[C@@H]2c1ccc2c(c1)OCO2`, the inhibition in assay [1] amounted to 15%. Moreover, in assay [2], the IC50 was determined as 5.4 nM.

The compound `CCOc1ccc2c(c1)[C@@H](c1cc(OC)c(OC)c(OC)c1)N(CC(=O)O)[C@@H]2c1ccc2c(c1)OCO2` returned an inhibition in assay [1] of 17%. Further, the IC50 in assay [2] amounted to 66 nM.

The compound `CCOc1ccc2c(c1)[C@@H](c1ccc(OC)cc1OCCCC(=O)O)N(CC(=O)O)[C@@H]2c1ccc2c(c1)OCO2` showed an inhibition in assay [1] of 37%. Moreover, the IC50 in assay [2] is 22 nM. `CCCOc1ccc2c(c1)[C@@H](c1ccc(OC)cc1)N(CC(=O)O)[C@@H]2c1ccc(OC)cc1OCC(=O)O` showed an inhibition in assay [1] of 0%. Also, the IC50 in assay [2] is more than 10000 nM. Regarding `CCOc1ccc2c(c1)[C@@H](c1cc(OC)c(OC)c(OC)c1OCC(=O)O)N(CC(=O)O)[C@@H]2c1ccc2c(c1)OCO2`, the inhibition in assay [1] was 1%. Moreover, the IC50 in assay [2] came out at 310 nM. Turning to `CCCOc1ccc2c(c1)[C@H](c1ccc(OC)cc1OCC(=O)O)[C@@H](C(=O)O)[C@@H]2c1ccc2c(c1)OCO2`, the Ki in assay [3] came out at 0.43 nM; in assay [4], 14.7 nM. As for `CCOc1ccc2c(c1)[C@H](c1ccc(OC)cc1O)N(CC(=O)O)[C@@H]2c1ccc2c(c1)OCO2`, the inhibition in assay [1] stood at 13%. In addition, the IC50 in assay [2] was 58 nM. In turn, `CCOc1ccc2c(c1)[C@@H](c1ccc(OC)cc1OCC(=O)O)N(C(=O)C(=O)O)[C@@H]2c1ccc2c(c1)OCO2` yielded an inhibition in assay [1] of 11%. Further, in assay [5], the pKB is given as 7.7. In assay [2], the IC50 is 12 nM. For `CCOc1ccc2c(c1)[C@@H](c1ccc(OC)cc1)N(CC(=O)O)[C@@H]2c1ccc2c(c1)OCO2`, the inhibition in assay [1] amounted to 9%. In addition, the IC50 in assay [2] came to 96 nM. The like results for `CCOc1ccc2c(c1)[C@@H](c1ccc(OC)cc1O)N(CC(=O)O)[C@@H]2c1ccc2c(c1)OCO2` were, in that order, 4% and 77 nM.

Consider `CCOc1ccc2c(c1)[C@@H](c1cccc(OC)c1OCC(=O)O)N(CC(=O)O)[C@@H]2c1ccc2c(c1)OCO2`, for which the inhibition in assay [1] came out at 12%. Also, in assay [2], the IC50 is 85 nM. The like results for `CCOc1ccc2c(c1)[C@H](c1ccc(OC)cc1OCC(C)(C)C(=O)O)N(CC(=O)O)[C@@H]2c1ccc2c(c1)OCO2` were, in that order, 34% and 14 nM.
